US11547677B2, “Transmucosal delivery system for idebenone” (LTS LOHMANN THERAPIE-SYSTEME AG, priority 2017, dated 2023)
Counter-ions that a name gives are not always drawn.

How the values were obtained:
[1] = n-octanol/water; cited from earlier work
[2] = oral administration; cited from earlier work
[3] = Saturation concentration of idebenone in the inner, hydrophobic, phase (HPLC of supernatant); assay type: physicochemical; details: in composition of the 2nd table (vitamin E, Polysorbate 80, methyl salicylate, eucalyptol, tributyl citrate, Brij S2)
Description: Idebenone is added in excess to the inner, hydrophobic, phase, so that even after relatively long stirring solid dregs of active ingredient are still present. Then the dregs are removed by centrifuging. The resulting supernatant contains idebenone in its saturation concentration. This is determined by analysis for example by means of HPLC. The saturation concentration of idebenone for an exemplified composition according to the invention was determined as follows. [table]

saturation concentration ([3]; 4° C.) [g/L] | saturation concentration ([3]; room temperature) [g/L] | SMILES | LogP [1] | idebenone metabolised in the first-pass metabolism [2]
– | – | CC12CCC(CC1)C(C)(C)O2 [EUC, eucalyptol] | LogP = 2.8 | –
– | – | COC(=O)c1ccccc1O [MS, methyl salicylate] | LogP = 2.24 | –
– | – | CCCCOC(=O)CC(O)(CC(=O)OCCCC)C(=O)OCCCC [TBC, tributyl citrate] | LogP = 4.7 | –
103 | 145 | COC1=C(OC)C(=O)C(CCCCCCCCCCO)=C(C)C1=O [idebenone, 2-(10-hydroxydecyl)-5,6-dimethoxy-3-methyl-cyclohexa-2,5-diene-1,4-dione] | – | more than 98%
